# Test results: patent publication US6758840B2, “Drug delivery device” (Metris Therapeutics Limited, priority 2000, dated 2004)
# What was measured:
# [1] = Plasma mefenamic acid after intra-vaginal device with adhesive tape layer (Example 2); assay type: in vivo, Rhesus monkeys; settings: intra-vaginal tampon device, double-sided adhesive tape as fluid-impermeable layer, mefenamic acid powder dusted on; Rhesus monkey plasma
# From the text: Devices according to the present invention were made and used to deliver a pharmaceutical agent intra-vaginally in Rhesus monkeys.
# (§1) Materials used in the manufacture of commercial tampons for human use were reconstituted to produce tampons with dimensions 7 mm×25 mm or 5 mm×25 mm. Depending on the weight of an individual Rhesus monkey, one of these sizes of tampon was able to be conveniently inserted into the vagina of the Rhesus monkey.
# A strip of double-sided adhesive tape was secured to the surface of the tampons to function as the fluid-impermeable layer. Mefenamic acid powder was “dusted” onto the surface of the tape and non-adherent mefenamic acid was removed.
# (§2) Rhesus monkeys were anaesthetised with ketamine hydrochloride and one of the above-mentioned tampon devices was inserted into the vagina of each monkey. A 19 gauge catheter was inserted into the saphenous vein of each monkey. This catheter was used to collect blood samples during the course of the study. The monkeys were returned to their cages when appropriate.
# (§3) Blood samples were taken at intervals and plasma was prepared and frozen. After the completion of the study, all plasma samples were assayed for the concentration of mefenamic acid.
# [2] = Plasma mefenamic acid after intra-vaginal device with wax layer (Example 3); assay type: in vivo, Rhesus monkeys; settings: intra-vaginal tampon device, wax fluid-impermeable layer, mefenamic acid dusted on; Rhesus monkey plasma
# From the text: Further devices according to the present invention were made and used to deliver a pharmaceutical agent intra-vaginally in Rhesus monkeys.
# as §1
# Wax material was used to create a fluid-impermeable layer of the tampons by warming the wax layer to make it adhere to the body of the tampon. Once the wax layer had been applied, mefenamic acid was “dusted” onto the device while the device was warmed to aid adhesion between the wax and the mefenamic acid. Non-adherent mefenamic acid was removed.
# as §2, §3
# [3] = Plasma mefenamic acid after intra-vaginal wax-layer device, eight monkeys (Example 4); assay type: in vivo; settings: average 6.4 mg mefenamic acid per device, mean of eight Rhesus monkeys
# Procedure: Eight devices were prepared as described in Example 3. The devices were assayed and the average amount of mefenamic found to be in each device was 6.4 mg. Each device was inserted into the vagina of one of eight Rhesus monkeys. The monkeys all weighed in the range 7.27 kg to 8.95 kg.
# (§4) Blood samples were taken from the Rhesus monkeys and the samples were assayed as described in Example 3, at the time intervals shown in the graph of FIG. 18. The results of this study are shown in the graph of FIG. 18, which indicates the concentration in ng/ml of mefenamic acid found in the plasma of the Rhesus monkeys with time following insertion of the devices of this example. Each point of the graph of FIG. 18 represents the mean value of the concentration of the eight monkeys.
# [4] = Comparison of uptake of mefenamic acid from device and from slurry (Example 5); assay type: in vivo; settings: Rhesus monkeys
# From the text: A comparison was made between the uptake of mefenamic acid in Rhesus monkeys where the mefenamic acid was introduced intra-vaginally using the devices of Example 3 and the uptake of mefenamic acid in Rhesus monkeys where a slurry comprising mefenamic acid was introduced intra-vaginally.
# The slurry of mefenamic acid applied to a Rhesus monkey comprised a total amount of mefenamic acid that was greater than ten times that applied to a Rhesus monkey using the device of Example 3.
# as §4, with “19.” for “18.”, “19,” for “18,”, “devices (circles) and slurry (triangles)” for “devices”, “example.” for “example. Each point of the graph of FIG. 18 represents the mean value of the concentration of the eight monkeys.”
smiles,measurement,setting,value
Cc1cccc(Nc2ccccc2C(=O)O)c1C [mefenamic acid],"transport across the vaginal mucosa / systemic circulation (plasma concentration, FIG. 16)",[1],mefenamic acid was transported across the vaginal mucosa and systemic circulation of mefenamic acid was achieved
same,"transport across the vaginal mucosa / systemic circulation (plasma concentration, FIG. 17)",[2],mefenamic acid was transported across the vaginal mucosa and systemic circulation of mefenamic acid was achieved
same,"transport across the vaginal mucosa / systemic circulation (plasma concentration, FIG. 18)",[3],mefenamic acid was transported across the vaginal mucosa and systemic circulation of mefenamic acid was achieved
same,"uptake of mefenamic acid (plasma concentration, FIG. 19)","[4]; introduced intra-vaginally as slurry, total amount greater than ten times that of the device",only limited uptake of mefenamic acid by the monkeys was achieved
same,"uptake of mefenamic acid (plasma concentration, FIG. 19)",[4]; introduced intra-vaginally using the device of Example 3 (wax layer),transportation of mefenamic acid across the vaginal mucosa and systemic circulation of mefenamic acid in the Rhesus monkeys was achieved
